Earlier results as cited in US20220305028A1, “METHOD FOR PREPARING A LIPOSOMAL COMPOSITION COMPRISING LATANOPROST, AND THE PHARMACOLOGICALLY ACTIVE LIPOSOMAL COMPOSITION FOR OPHTHALMOTHERAPY PREPARED BY THIS METHOD” (CONSORTIUM "UKRINDUSTRY", priority 2021, published 2022).

Conditions: aqueous ophthalmic drops

CC(C)OC(=O)CCC/C=C\C[C@@H]1[C@@H](CC[C@@H](O)CCc2ccccc2)[C@H](O)C[C@@H]1O [latanoprost, Latanoprost]
penetration of the latanoprost from the drops through a corneal epithelium: not more than 5 % of the administered amount
